By IC50 is commonly meant the concentration that inhibits the measured activity by half. Low readings indicate higher potency, high ones lower potency. A word on the inhibition: it is the change of the read-out against control, counted positive when it falls.

We go through six compounds from patent US10683278B2 (JINAN UNIVERSITY, priority 2015, dated 2020).

Assay [1] addresses T1, AXL kinase (Homo sapiens, UniProt P30530).
T1 construct: purchased Invitrogen PV4803
T1 sequence (P30530 26-894): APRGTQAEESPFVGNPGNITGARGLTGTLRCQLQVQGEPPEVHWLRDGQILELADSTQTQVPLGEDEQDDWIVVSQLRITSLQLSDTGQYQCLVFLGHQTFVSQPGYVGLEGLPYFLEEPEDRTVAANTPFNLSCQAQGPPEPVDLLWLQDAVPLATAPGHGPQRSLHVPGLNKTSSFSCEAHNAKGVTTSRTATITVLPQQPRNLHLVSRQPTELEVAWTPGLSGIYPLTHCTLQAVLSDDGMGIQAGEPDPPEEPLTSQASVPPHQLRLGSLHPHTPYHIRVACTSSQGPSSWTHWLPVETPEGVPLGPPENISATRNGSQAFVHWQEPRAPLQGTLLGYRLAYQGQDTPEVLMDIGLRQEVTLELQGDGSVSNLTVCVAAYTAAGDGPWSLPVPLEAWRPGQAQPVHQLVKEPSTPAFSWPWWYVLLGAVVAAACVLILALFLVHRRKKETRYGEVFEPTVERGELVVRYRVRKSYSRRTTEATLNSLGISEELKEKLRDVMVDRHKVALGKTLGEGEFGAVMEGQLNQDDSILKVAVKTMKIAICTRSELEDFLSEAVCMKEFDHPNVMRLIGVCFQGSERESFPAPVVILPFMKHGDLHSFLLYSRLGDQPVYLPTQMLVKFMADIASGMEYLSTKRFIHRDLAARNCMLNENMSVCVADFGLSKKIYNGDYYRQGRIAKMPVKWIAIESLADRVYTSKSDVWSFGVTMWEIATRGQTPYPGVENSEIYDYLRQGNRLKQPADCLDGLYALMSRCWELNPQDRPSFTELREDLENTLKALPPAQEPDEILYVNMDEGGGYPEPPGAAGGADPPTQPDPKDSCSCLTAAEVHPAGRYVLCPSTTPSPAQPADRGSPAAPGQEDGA
The experiment in a line: IC50 test on AXL kinase (Z′-LYTE FRET kinase activity detection). Format: biochemical. Conditions: for IC50: Z′-LYTE FRET peptide assay, 1 h reaction; for inhibitory activity on AXL kinase: competitive experiment with ATP, in words. The procedure, abridged:
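AXL kinase with Z′-LYTE Tyr 2 FRET peptide, ATP and graded compound concentrations reacted 1 h, then site-specific protease cleaved non-phosphorylated peptide for 1 h. Emission at 445 and 520 nm with 400 nm excitation gave the IC50.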

The target in assay [2] is T2, FLT-3 kinase domain recombinant protein (Homo sapiens, UniProt P36888).
T2 construct: 50 μL FLT-3 kinase domain recombinant protein diluted with reaction buffer to initiate the reaction
T2 sequence (P36888 610-943 limits assumed): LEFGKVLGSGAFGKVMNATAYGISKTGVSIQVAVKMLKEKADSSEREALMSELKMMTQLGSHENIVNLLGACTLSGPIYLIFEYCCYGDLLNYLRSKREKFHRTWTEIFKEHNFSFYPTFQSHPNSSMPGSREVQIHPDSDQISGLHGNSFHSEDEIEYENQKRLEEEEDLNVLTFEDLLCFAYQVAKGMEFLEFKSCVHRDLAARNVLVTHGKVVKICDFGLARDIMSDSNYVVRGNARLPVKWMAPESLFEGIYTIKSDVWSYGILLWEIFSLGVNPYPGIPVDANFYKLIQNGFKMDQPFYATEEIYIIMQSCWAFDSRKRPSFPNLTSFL
Nature of the assay: Inhibition rate on FLT3 kinase (ELISA). Format: biochemical. Conditions: two values per compound; for inhibition at 0.01 µM / inhibition at 0.1 µM / inhibition at 1 µM: read-out: Inhibition rate (%) against receptor tyrosine kinase FLT-3. The procedure, abridged: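 Recombinant FLT-3 kinase domain phosphorylated coated Poly(Glu,Tyr) 4:1 with ATP in HEPES pH 7.4 buffer with MgCl2, MnCl2, Na3VO4, DTT, 1 h at 37 °C; 1% DMSO final. Phosphotyrosine detected with PY99 and HRP anti-mouse antibody, OPD development, absorbance at 490 nm.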

Structures are written as SMILES.

In turn, `COc1cc2ncnc(Oc3ccc(NC(=O)c4cn5c6c(c(N7CCC(O)CC7)c(F)cc6c4=O)CCC5C)cc3F)c2cc1OC` (centres unmarked) [TL4830031, N-(4-((6,7-dimethoxyquinazolin-4-yl)oxy)-3-fluorophenyl)-9-fluoro-8-(4-hydroxypiperidin-1-yl)-5-methyl-1-oxo-1,5,6,7-tetrahydropyrido[3,2,1-ij]quinoline-2-carboxamide] yielded an IC50 in assay [1] of 28 nM. In addition, the “Inhibition rate (%) against receptor tyrosine kinase FLT-3” value (“Inhibition rate (%)” for short) in assay [2] (compound 10 nM, 0.01 µM) was determined as 57.9%; in assay [2] (compound 100 nM, 0.1 µM) it was 65.8%; in assay [2] (compound 1000 nM, 1 µM), 76.4%. Moreover, the inhibition at 0.01 µM in assay [2] (compound 10 nM) was found to be 56.8%. Besides, the inhibition at 0.1 µM in assay [2] (compound 100 nM) worked out at 71.4%. Besides, the inhibition at 1 µM in assay [2] (compound 1000 nM) came out at 79.5%.

The compound `CCc1ccc2c(c1)c(=O)c(C(=O)Nc1ccc(Oc3ncnc4cc(OCCCN5CCOCC5)c(OC)cc34)c(F)c1)c(C)n2C` [GDL5000123, 6-ethyl-N-(3-fluoro-4-((6-methoxy-7-(3-morpholinopropoxy)quinazolin-4-yl)oxy)phenyl)-1,2-dimethyl-4-oxo-1,4-dihydroquinoline-3-carboxamide] gave a half-inhibitory concentration (IC50) in assay [1] of 8 nM. Also, in assay [1], the “inhibitory activity on AXL kinase” value is reported as “strong inhibitory activity”. Further, the “Inhibition rate (%)” value in assay [2] (compound 10 nM, 0.01 µM) is 74.8%; in assay [2] (compound 100 nM, 0.1 µM), 83.8%; in assay [2] (compound 1000 nM, 1 µM), 97.4%. For the same compound, the inhibition at 0.01 µM in assay [2] (compound 10 nM) was 75.4%. For the same compound, in assay [2] (compound 100 nM), the inhibition at 0.1 µM was 89.3%. In addition, the inhibition at 1 µM in assay [2] (compound 1000 nM) was determined as 104%.

In assay [1], `CCc1ccc2c(c1)c(=O)c(C(=O)Nc1ccc(Oc3ncnc4[nH]cc(-c5ccccc5)c34)c(F)c1)c(C)n2C` [TL4800075, 6-ethyl-N-(3-fluoro-4-((5-phenyl-7H-pyrrolo[2,3-d]pyrimidin-4-yl)oxy)phenyl)-1,2-dimethyl-4-oxo-1,4-dihydroquinoline-3-carboxamide] showed an IC50 of 6 nM. The “Inhibition rate (%)” value in assay [2] (compound 10 nM, 0.01 µM) is recorded as 41.9%; in assay [2] (compound 100 nM, 0.1 µM), 70.4%; in assay [2] (compound 1000 nM, 1 µM) it was 80.7%. Besides, the inhibition at 0.01 µM in assay [2] (compound 10 nM) was 48.7%. In addition, the inhibition at 0.1 µM in assay [2] (compound 100 nM) worked out at 76.3%. Also, in assay [2] (compound 1000 nM), the inhibition at 1 µM was found to be 86.6%.

`CCc1ccc2c(c1)c(=O)c(C(=O)Nc1ccc(Oc3ncnc4cc(OCCN(C)C)c(OC)cc34)c(F)c1)c(C)n2C` [GDL5000128, N-(4-(7-(2-(dimethylamino)ethoxy)-6-methoxyquinazolin-4-yloxy)-3-fluorophenyl)-6-ethyl-1,2-dimethyl-4-oxo-1,4-dihydroquinoline-3-carboxamide]: in assay [1], the IC50 is 6 nM and the “inhibitory activity on AXL kinase” value is “strong inhibitory activity”. Besides, in assay [2] (compound 10 nM, 0.01 µM), the “Inhibition rate (%)” value worked out at 71.7%. In assay [2] (compound 10 nM), the inhibition at 0.01 µM turned out to be 59.1%. For the same compound, the “Inhibition rate (%)” value in assay [2] (compound 100 nM, 0.1 µM) is 79.5%. Further, in assay [2] (compound 100 nM), the inhibition at 0.1 µM is 75.4%. For the same compound, the inhibition at 1 µM in assay [2] (compound 1000 nM) turned out to be 87.9%.

In the case of `CCc1ccc2c(c1)c(=O)c(C(=O)Nc1ccc(Oc3ncnc4cc(OCCCN5CCN(C)CC5)c(OC)cc34)c(F)c1)c(C)n2C` [GDL5000138, 6-ethyl-N-(3-fluoro-4-(6-methoxy-7-(3-(4-methylpiperazin-1-yl)propoxy)quinazolin-4-yloxy)phenyl)-1,2-dimethyl-4-oxo-1,4-dihydroquinoline-3-carboxamide], in assay [1], it took 3 nM to reach half-maximal inhibition (IC50). In addition, in assay [1], the “inhibitory activity on AXL kinase” value was “strong inhibitory activity”. For the same compound, the “Inhibition rate (%)” value worked out at 66.4% in assay [2] (compound 10 nM, 0.01 µM); 83.0% in assay [2] (compound 100 nM, 0.1 µM); 98.1% in assay [2] (compound 1000 nM, 1 µM). Besides, in assay [2] (compound 10 nM), the inhibition at 0.01 µM came to 67.7%. The inhibition at 0.1 µM in assay [2] (compound 100 nM) was found to be 81.5%. The inhibition at 1 µM in assay [2] (compound 1000 nM) is 98%.

In assay [1], `CCc1ccc2c(c1)c(=O)c(C(=O)Nc1ccc(Oc3ncnc4cc(OC)c(OC)cc34)c(F)c1)c(C)n2C` [TL4800191, N-(4-(6,7-dimethoxyquinazolin-4-yloxy)-3-fluorophenyl)-6-ethyl-1,2-dimethyl-4-oxo-1,4-dihydroquinoline-3-carboxamide] gave an IC50 of 4 nM. Also, the “Inhibition rate (%)” value in assay [2] (compound 10 nM, 0.01 µM) worked out at 67.0%; in assay [2] (compound 100 nM, 0.1 µM) it was 77.1%; in assay [2] (compound 1000 nM, 1 µM) it was 83.2%. The inhibition at 0.01 µM in assay [2] (compound 10 nM) is 70.7%. In addition, the inhibition at 0.1 µM in assay [2] (compound 100 nM) is 86.4%. Further, the inhibition at 1 µM in assay [2] (compound 1000 nM) worked out at 84.7%.
